For orientation: IC50 means the midpoint of a concentration-inhibition curve.

Results on one molecule are retold here after patent publication US11466028B2, “Fused 1,4-oxazepines as BET protein degraders” (THE REGENTS OF THE UNIVERSITY OF MICHIGAN, priority 2016, dated 2022).

Experiment [1] relates to MDA-MB-231 TNBC. Put plainly: MDA-MB-231 TNBC model. Type of experiment: in vivo. The note with it: FIG. 12. As for the experimental part: (§1) Representative Compounds of the Disclosure were tested in the RS4;11 and other xenograph models using similar techniques. […] No. 22 in the MDA-MB-231 TNBC model.
Experiment [2] deals with MOLM-13. As to the kind of experiment: CellTiter-Glo cell growth inhibition, MOLM-13. The settings on record: Homo sapiens, MOLM-13, 96 h, 4 days, Table 4, read-out: MOLM-13 IC50. The experiment is classed as cell-based. The essentials:
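Leukemia cells seeded at 2,000 cells/well with serially diluted compounds, 4 days at 37 °C, 5% CO2. Viability by CellTiter-Glo luminescence after 10-20 min at RT. IC50 calculated from the curves.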

The subject of experiment [3] is RS4;11. As to the kind of experiment: CellTiter-Glo cell growth inhibition, RS4;11. The experiment is classed as cell-based. The settings on record: Homo sapiens, RS4-11, 96 h, 4 days, Table 4, read-out: RS-4, 11 IC50. As for the experimental part:
Cell growth inhibitory activity of representative Compounds of the Disclosure was determined using the CellTiter-Glo® Luminescent Cell Viability Assay. Cells were seeded in 384-well white opaque cell culture plates at a density of 2,000 cells/well with serially diluted compounds and incubated at 37° C. in an atmosphere of 95% air and 5% CO2 for 4 days. Cell viability was determined using the CellTiter-Glo® Luminescent Cell Viability Assay Kit (Promega, Madison, Wis.) according to the manufacture's instruction. Briefly, a volume of CellTiter-Glo® Reagent equal to the volume of cell culture medium was added to each well, and then the plates were incubated at room temperature for 10-20 minutes. The luminescent signal was measured using a Tecan Infinite M1000 multimode microplate reader (Tecan, Morrisville, N.C.). The half maximal inhibitory concentration (IC50) was calculated using the GraphPad Prism 5 software (GraphPad Software, La Jolla, Calif.).
Cpd. Nos. 18 and 19 were tested in various leukemia cell lines using the CellTiter-Glo® Luminescent Cell Viability Assay as described in Example 35.

In experiment [4] the test system is WHIM24 breast cancer PDX. Put plainly: WHIM24 breast cancer PDX model. The experiment is classed as in vivo. The note with it: FIG. 10. As for the experimental part:
as §1

The test system of experiment [5] is MDA-MB-468 TNBC. As to the kind of experiment: MDA-MB-468 TNBC model. The experiment is classed as in vivo. The note with it: FIG. 11. As for the experimental part: as §1
The test system of experiment [6] is MDA-MB-231. As to the kind of experiment: CellTiter-Glo cell growth inhibition, MDA-MB-231. The note with it: Homo sapiens, MDA-MB-231, 96 h, 4 days, Table 4. Type of experiment: cell-based. The essentials:
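Cells seeded at 2,000 cells/well with serially diluted compound and incubated 4 days at 37 °C, 5% CO2. Viability read by CellTiter-Glo luminescence after 10-20 min at room temperature; IC50 calculated from the dose-response.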

Experiment [7] deals with MV4;11 xenograph. Put plainly: MV4;11 xenograph model. The experiment is classed as in vivo. The method, then:
as §1

Experiment [8] has as its system RS4;11 xenograph tumors. Put plainly: RS4;11 xenograft model. Type of experiment: in vivo, SCID mice. As for the experimental part:
Cpd. Nos. 7 and 11 were dissolved in 10% PCP [10% PEG400 (Sigma), 3% Cremophor (Sigma), and 87% PBS (Gibco)]. The pH of the drug solutions were checked before use and adjusted with 0.5N NaOH to be between pH 6.5 and 8.0 for IV (intravenous) administration.
RS4;11 cells were maintained at 37° C., 95% air, 5% carbon dioxide in Improved MEM (Richter's Mod.) supplemented with 10% Fetal Bovine Serum, 100 units/ml of penicillin and 100 units/ml of streptomycin (GIBCO™, Invitrogen Corp.) and passaged twice weekly.
Tumor cells for xenografts were harvested with Trypsin (0.05%)-EDTA (0.53 mM) (GIBCO™, Invitrogen Corp.), growth medium added and cells placed on ice. Cells were washed once with 1×PBS (GIBCO™, Invitrogen Corp.) and re-suspended in PBS. After washing in PBS, cells were re-suspended in an ice cold mixture of 1:1 PBS and Matrigel (BD Biosciences, Invitrogen Corp.) for a final Matrigel protein concentration of 5 mg/ml. Cells at 5×10^6 cells in 0.1 ml were injected subcutaneously (s.c.) into the flank region of each mouse using a 25 gauge needle. All tumors were inoculated into SCID mice (strain:236) C.B-17 SCID, Charles River.
The size of tumors growing in the mice was measured in two dimensions using calipers. Tumor volume (mm^3)═(A×B^2)/2 where A and B are the tumor length and width (in mm), respectively. During treatment, tumor volume and body weight were measured three times a week. After the treatment was stopped, tumor volume and body weight was measured at least once a week.
Tumors were not allowed to exceed 10% of the animals total body weight. If an animal had two or more tumors the total weight of all tumors were not allowed to exceed 10% of the animal's total body weight. At the end of the experimental period or when tumor size approached 10% of the total body weight, the animal was euthanized.
Before treatment began, tumors were allowed to grow to 100-200 mm^3 in volume, at which point the blood vessel supplies to the tumor should have been well established. Mice with tumors within acceptable size range were randomized into treatment groups of seven mice. Cpd. Nos. 7 and 11 were given i.v. at 10 mg/kg at days 1,3, and 5 per week for two weeks. The Control group received vehicle alone. Cpd. Nos. 16, 18, 22 and 48 were given i.v. at 5 mg/kg at days 1, 3, and 5 per week for two weeks. The Control group received vehicle alone.
as §1

Molecules are shown by their SMILES.

Take `Cc1nnc2n1-c1sc(C#Cc3cnn(CCCC#Cc4cccc5c4CN(C4CCC(=O)NC4=O)C5=O)c3)c(Cc3ccccc3)c1COC2` (centres unmarked) [Cpd. No. 22, 3-(4-(5-(4-((3-benzyl-9-methyl-4H,6H-thieno[2,3-e][1,2,4]triazolo[3,4-c][1,4]oxazepin-2-yl)ethynyl)-1H-pyrazol-1-yl)pent-1-yn-1-yl)-1-oxoisoindolin-2-yl)piperidine-2,6-dione]: the “tumor regression in the MDA-MB-231 TNBC model” value in experiment [1] is “induces tumor regression”. The concentration for half-maximal inhibition (IC50) is 0.85 nM in experiment [2], 0.11 nM in experiment [3] and < 0.015 nM in experiment [6]. For the same molecule, the “tumor regression in the WHIM24 breast cancer PDX model” value in experiment [4] is “induces tumor regression”. Besides, the “tumor regression in the MDA-MB-468 TNBC model” value in experiment [5] was “induces tumor regression”. Further, the “tumor regression in the MV4;11 xenograph model” value in experiment [7] (FIG. 8) is given as “induces tumor regression”; in experiment [7] (FIG. 9) it was “induce tumor regression”. For the same molecule, the “tumor regression in RS4;11 xenograph tumors” value in experiment [8] (SCID mice, i.v. 5 mg/kg at days 1, 3, 5 per week for two weeks, FIG. 4) was “induce tumor regression”. The “tumor regression in the RS4;11 xenograph model” value in experiment [8] (every other day dosing schedule, FIG. 6) is “induces tumor regression”; in experiment [8] (single dose or weekly dosing schedule, FIG. 7) it was “induces tumor regression”.
